Assay results: PMC2267209, “Transepithelial Transport and Enzymatic Detoxification of Gluten in Gluten-Sensitive Rhesus Macaques” (PLoS ONE, 2008)
One block for each substance: values may come before it.

Experiments:
[1] = system: gluten-sensitive rhesus macaque FH45; test: Daily gluten challenge with or without oral EP-B2, clinical score; type: in vivo, rhesus macaques (Macaca mulatta)
Source text: Gluten-sensitive FH45 and control FI96 were switched from a gluten-containing to a gluten-free diet at week 0, re-challenged with the gluten-containing diet from week 10.4 to 11.4, and then returned to a gluten-free diet for the remainder of the experiment. To test whether orally administered EP-B2 can prevent clinical symptoms resulting from gluten challenge, animals were fed a gluten-free diet with the addition of a daily slice of unbleached wheat bread (∼4 g gluten) for 8 weeks (weeks 22.9 to 30.9), during the first 4 of which (weeks 22.9 to 26.9) gluten-sensitive macaque FH45 received a daily dose of 2 g recombinant proEP-B2 dissolved in an electrolyte drink immediately prior to bread consumption. Recombinant proEP-B2 was expressed and purified as previously described, [31]. Peripheral blood samples (1 ml) were collected every 1–2 weeks from a femoral vein, and plasma was harvested and stored at −80 °C until analyzed for AGA and anti-TG2 antibodies. Clinical health was monitored as previously described. Briefly, daily clinical scores were averaged over weekly intervals to obtain each weekly mean±standard deviation. Criteria for clinical scoring (1–6 scale) were scaled relative to “clinically normal”, age-matched controls, i.e. score of 1. Score 2 corresponded to beginning of diarrhea, i.e. pasty stools. Score 3 corresponded to semi-liquid stools and decreased activity. […]

[2] = system: gluten-sensitive rhesus macaque FH45; test: Indirect ELISA for plasma AGA and anti-TG2 antibodies during gluten challenge with EP-B2; type: in vivo, rhesus macaques (Macaca mulatta)
Source text: Gluten-sensitive FH45 and control FI96 were switched from a gluten-containing to a gluten-free diet at week 0, re-challenged with the gluten-containing diet from week 10.4 to 11.4, and then returned to a gluten-free diet for the remainder of the experiment. To test whether orally administered EP-B2 can prevent clinical symptoms resulting from gluten challenge, animals were fed a gluten-free diet with the addition of a daily slice of unbleached wheat bread (∼4 g gluten) for 8 weeks (weeks 22.9 to 30.9), during the first 4 of which (weeks 22.9 to 26.9) gluten-sensitive macaque FH45 received a daily dose of 2 g recombinant proEP-B2 dissolved in an electrolyte drink immediately prior to bread consumption. Recombinant proEP-B2 was expressed and purified as previously described, [31]. Peripheral blood samples (1 ml) were collected every 1–2 weeks from a femoral vein, and plasma was harvested and stored at −80 °C until analyzed for AGA and anti-TG2 antibodies. Clinical health was monitored as previously described. Briefly, daily clinical scores were averaged over weekly intervals to obtain each weekly mean±standard deviation. Criteria for clinical scoring (1–6 scale) were scaled relative to “clinically normal”, age-matched controls, i.e. score of 1. Score 2 corresponded to beginning of diarrhea, i.e. pasty stools. Score 3 corresponded to semi-liquid stools and decreased activity. Score 4 corresponded to liquid stools, decreased activity, moderate dehydration and “balloon” stomach. Score 5 corresponded to liquid stools, depression, severe dehydration and balloon stomach. Score 6 corresponded to a moribund animal where prompt euthanasia is recommended.
ELISA assays were performed as previously described.

[3] = system: celiac patient-derived T cells; conditions: ref [2], [19], cited from earlier work
[4] = rhesus monkey, in vivo
Description: A 0.5 ml sample of EDTA-blood was collected from an ear vein at 0, 30, 60, 120, and 180 min following the 33-mer inoculation. […] Animals were fasted at least 2 h prior to peptide inoculations. Blood collections and 33-mer inoculations were performed with sedated and anesthetized animals.
Following peptide dosing and peripheral plasma collection, described above, plasma proteins were precipitated by addition of acetonitrile. Plasma was mixed with an equal volume of cold acetonitrile+0.1% formic acid, vortexed, incubated for 2 h at 4°C, and centrifuged at 14,000•g for 10 min at 4°C. […] When quantitation was performed, unlabeled 33-mer was spiked into the plasma samples prior to acetonitrile precipitation as an internal control (5 pmol/100 µl injection) and injections were performed at least in triplicate.
Mass spectrometry analysis was performed as previously described [20] with the following modifications. […] For ^D933-mer, the transitions monitored were m/z 981.0^4+→263.1^+ (30V cone voltage, 27eV collision energy.) for the quantitation assay and m/z 1307.7^3+→263.1^+ (40V cone voltage, 50eV collision energy) as a confirmatory transition. […] Levels of ^D933-mer in each sample were determined by comparison of the area under the ^D933-mer transition peak to the area under the internal standard transition peak. […]

[5] = daily 2 g proEP-B2 plus wheat bread

Substance: EP-B2: gluten-specific barley cysteine endoprotease, dosed orally as recombinant proenzyme; oral glutenase drug candidate for celiac disease
Clinical health during gluten challenge with EP-B2 ([1]; daily 2 g recombinant proEP-B2 oral immediately before a daily slice of wheat bread (∼4 g gluten), first 4 weeks (weeks 22.9 to 26.9), clinical score 1–6 scale): remained clinically healthy
Time to signs of clinical illness after EP-B2 dosing was concluded ([1]; wheat bread gluten challenge continued without EP-B2 (weeks 26.9 to 30.9)): ~1 week
Anti-TG2 IgA ([2]; EP-B2 treatment with gluten challenge): unable to detect
AGA levels during wheat bread/EP-B2 administration relative to gluten-containing diet (week 0) [2, 5]: ~3 fold
Anti-TG2 IgG levels over the course of EP-B2 treatment [2, 5]: elevated

Substance: LQLQPFPQPQLPYPQPQLPYPQPQLPYPQPQPF [33-mer, immunotoxic 33-mer gluten peptide derived from gastrointestinal proteolysis of α2-gliadin; unlabeled form used as internal standard]
Concentration sufficient to stimulate proliferation of celiac patient-derived T cells ([3]; T cells in culture): low nanomolar concentrations
Proliferation of celiac patient-derived T cell lines ([3]; all T cell lines tested so far): activates proliferation in all celiac patient-derived T cell lines tested so far

Detection of peptide in peripheral plasma at 60 minutes [4]: detected
Concentration in peripheral plasma at 60 minutes ([4]; SD): 7.0 ± 0.4 nM
Substance: LQLQPFPQPQLPYPQPQLPYPQPQLPYPQPQPF [^D933-mer]
